In assay [1] the test system is AR-amplified prostate cancer cells. To be noted: cited from earlier work.
The target of another assay is T1, VHL-ElonginBC complex (Homo sapiens, UniProt P40337).
T1 construct: His-TEV (cleaved yes); made in house; host or cells: E. coli BL21(DE3)
Kind of assay: Fluorescence-polarization competitive binding assay for VHL protein. How it is done: Cloning and Purification of VHL-ElonginBC complex. […] The cells were induced overnight with 0.4 mM IPTG at 24° C. […] The cell suspension was lysed by sonication and debris removed via centrifugation. […] The protein complex was eluted in 20 mM Tris-HCl pH 7.0, 200 mM NaCl and 300 mM Imidazole, dialyzed into 20 mM Tris-HCl pH 7.0, 150 mM NaCl, and 0.01% bME and incubated with TEV protease overnight at 4° C. […] The flow through containing the VHL complex was diluted to 75 mM NaCl and applied to a HiTrap Q column (GE Healthcare). The sample was eluted with a salt gradient (0.075-1 M NaCl), concentrated and further purified on a Superdex S75 column (GE Healthcare) pre-equilibrated with 20 mM Bis-Tris 7.0, 150 mM NaCl and 1 mM DTT. Samples were aliquoted and stored at −80° C.
The IC50 and Ki values of compounds were determined in competitive binding experiments. […] IC50 values were determined by nonlinear regression fitting of the competition curves. Ki values of competitive inhibitors were obtained directly by nonlinear regression fitting, based upon the KD values of the probe and concentrations of the protein and probe in the competitive assays. All the FP competitive experiments were performed in duplicate in three independent experiments.

Another assay has as its target T2, AR protein (Homo sapiens, UniProt P10275, T878A).
T2 construct: The percent AR protein degradation induced by these compounds at various concentrations in LNCaP cells; host or cells: LNCaP
T2 sequence (P10275 1-920 T878A): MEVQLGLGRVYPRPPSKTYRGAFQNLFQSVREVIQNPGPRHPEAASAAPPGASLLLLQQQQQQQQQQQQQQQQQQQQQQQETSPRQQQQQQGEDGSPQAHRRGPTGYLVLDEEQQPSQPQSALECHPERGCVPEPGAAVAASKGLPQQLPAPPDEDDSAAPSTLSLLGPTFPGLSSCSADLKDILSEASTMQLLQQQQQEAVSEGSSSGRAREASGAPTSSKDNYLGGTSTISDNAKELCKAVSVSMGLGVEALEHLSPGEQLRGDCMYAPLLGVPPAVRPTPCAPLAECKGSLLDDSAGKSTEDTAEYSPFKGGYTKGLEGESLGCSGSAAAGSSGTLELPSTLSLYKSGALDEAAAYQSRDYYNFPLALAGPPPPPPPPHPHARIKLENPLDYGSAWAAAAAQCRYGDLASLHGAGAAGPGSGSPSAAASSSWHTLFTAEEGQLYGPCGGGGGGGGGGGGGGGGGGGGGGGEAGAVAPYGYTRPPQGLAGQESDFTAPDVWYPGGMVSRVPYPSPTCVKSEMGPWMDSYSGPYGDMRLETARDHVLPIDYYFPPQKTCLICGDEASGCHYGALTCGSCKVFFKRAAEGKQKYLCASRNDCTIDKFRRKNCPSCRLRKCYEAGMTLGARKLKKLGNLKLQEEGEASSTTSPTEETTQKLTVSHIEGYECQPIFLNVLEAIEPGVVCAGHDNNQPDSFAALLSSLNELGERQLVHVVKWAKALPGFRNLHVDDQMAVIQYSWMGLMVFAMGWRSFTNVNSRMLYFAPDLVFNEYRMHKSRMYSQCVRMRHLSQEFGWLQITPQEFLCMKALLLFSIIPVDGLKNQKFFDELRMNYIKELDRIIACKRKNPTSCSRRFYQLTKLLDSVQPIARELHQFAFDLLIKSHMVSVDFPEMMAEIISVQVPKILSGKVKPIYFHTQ
Kind of assay: AR protein degradation in LNCaP cells (Western blotting). Type of assay: cell-based. Particulars: treatment time 6 h, average of three independent experiments. Summed up: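 LNCaP cells were cultured with 10% FBS at 37° C and lysed in RIPA buffer after treatment. AR levels were measured by Western blot. Degradation percentage was quantified by densitometry as the background-corrected AR band relative to the loading control.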

SMILES strings stand for the structures. Some results are limits rather than exact numbers.

Take `Cc1ncsc1-c1ccc(CNC(=O)[C@@H]2C[C@@H](O)CN2C(=O)[C@@H](NC(=O)COCCCCOc2ccc(-c3ccc(N4C(=S)N(c5ccc(C#N)c(C(F)(F)F)c5)C(=O)C4(C)C)cc3)cc2)C(C)(C)C)cc1` [ARCC-4, (4R)-1-((S)-2-(2-(4-((4′-(3-(4-cyano-3-(trifluoromethyl)phenyl)-5,5-dimethyl-4-oxo-2-thioxoimidazolidin-1-yl)-[1,1′-biphenyl]-4-yl)oxy)butoxy)acetamido)-3,3-dimethylbutanoyl)-4-hydroxy-N-(4-(4-methylthiazol-5-yl)benzyl)pyrrolidine-2-carboxamide]: the “Inducing apoptosis and inhibiting proliferation, compared with enzalutamide” value in assay [1] is “more potent and effective than enzalutamide”.

As to `Cc1cc([C@H](C(=O)N2C[C@H](O)C[C@H]2C(=O)N[C@@H](CC(=O)NCCOCCOCCOCCNC(=O)c2ccc3c(c2)C(=O)OC32c3ccc(O)cc3Oc3cc(O)ccc32)c2ccc(-c3scnc3C)cc2)C(C)C)on1` [HXC78, (2S,4R)—N—((S)-1-(3′,6′-dihydroxy-3-oxo-3H-spiro[isobenzofuran-1,9′-xanthen]-5-yl)-17-(4-(4-methylthiazol-5-yl)phenyl)-1,15-dioxo-5,8,11-trioxa-2,14-diazaheptadecan-17-yl)-4-hydroxy-1-((R)-3-methyl-2-(3-methylisoxazol-5-yl)butanoyl)pyrrolidine-2-carboxamide, reference compound], binding on VHL-ElonginBC complex (tracer binding to VHL complex (VHL, Elongin B, Elongin C)) was characterised by a dissociation constant (Kd) of 2.4 nM.

`CC(=O)N[C@H](C(=O)N1C[C@H](O)C[C@H]1C(=O)N[C@@H](C)c1ccc(-c2scnc2C)cc1)C(C)(C)C` [VHL-b, (2S,4R)-1-((S)-2-acetamido-3,3-dimethylbutanoyl)-4-hydroxy-N—((S)-1-(4-(4-methylthiazol-5-yl)phenyl)ethyl)pyrrolidine-2-carboxamide] returned an IC50 on VHL-ElonginBC complex (FP competition, VHL protein and fluorescent probe both 5 nM) of 164 ± 13 nM.

On to `Cc1ncsc1-c1ccc([C@H](CC(=O)N2CCC(N3CCC(C#Cc4ccc(C(=O)N[C@H]5C(C)(C)[C@H](Oc6ccc(C#N)c(Cl)c6)C5(C)C)cc4)CC3)CC2)NC(=O)[C@@H]2C[C@@H](O)CN2C(=O)[C@H](NC(=O)C2(F)CC2)C(C)(C)C)cc1` [Compound 38, (2S,4R)—N—((S)-3-(4-((4-(((1r,3r)-3-(3-Chloro-4-cyanophenoxy)-2,2,4,4-tetramethyl-cyclobutyl)carbamoyl)phenyl)ethynyl)-[1,4′-bipiperidin]-1′-yl)-1-(4-(4-methylthiazol-5-yl)phenyl)-3-oxopropyl)-1-((R)-2-(1-fluorocyclopropane-1-carboxamido)-3,3-dimethyl-butanoyl)-4-hydroxypyrrolidine-2-carboxamide], for which the “% AR protein degradation in LNCaP Cells” value at AR protein (0.1 μM), on AR protein (1 μM) and at AR protein (10 μM) was below 5% in each case.

The values above are taken from patent publication US20220081435A1, “ANDROGEN RECEPTOR PROTEIN DEGRADERS” (THE REGENTS OF THE UNIVERSITY OF MICHIGAN, priority 2019, published 2022).
